Article PMC11191095, “QSAR Reveals Decreased Lipophilicity of Polar Residues Determines the Selectivity of Antimicrobial Peptide Activity” (ACS Omega, 2024)
Where a SMILES comes first, the peptide text is derived from it.

Assays:
Experiment in all cases: microbe, parasite or virus in culture
A. baumannii AYE = type: cell-based, Acinetobacter baumannii; conditions: A. baumannii AYE (R)
Procedure, shortened: (§1)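 Peptides 128→2 μg/mL, 2-fold series; inoculum ~5 × 10^5 CFU/mL from overnight culture (OD600 0.01, mixed 1:1). MHB non-cation-adjusted for bacteria, RPMI 1640 + 2% glucose for fungi. 37 °C, 20 h, OD600. MIC50/MIC90 at 50%/90% inhibition; n ≥ 3.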

A. baumannii ATCC 17978 = type: cell-based, Acinetobacter baumannii
Procedure, shortened: as §1

C. auris TDG 1912 = type: cell-based, Candida auris; conditions: TDG 1912, 20 h
Procedure, shortened: as §1

E. coli LEC001 = type: cell-based, Escherichia coli
Procedure, shortened: as §1

E. coli NCTC 12923 = type: cell-based, Escherichia coli
Procedure, shortened: as §1

C. glabrata NCPF 8018 = type: cell-based
Procedure, shortened: as §1

[1] = tested on: C. parapsilosis NCPF 3209; type: cell-based
Procedure, shortened: as §1

C. krusei NCPF 3876 = type: cell-based
Procedure, shortened: as §1

C. albicans NCPF 3281 = type: cell-based
Procedure, shortened: as §1

C. tropicalis NCPF 8760 = type: cell-based
Procedure, shortened: as §1

P. aeruginosa NCTC 13437 = type: cell-based, Pseudomonas aeruginosa; conditions: P. aeruginosa NCTC 13437 (R)
Procedure, shortened: as §1

S. aureus (MRSA) USA300 = type: cell-based, Staphylococcus aureus; conditions: S. aureus (MRSA) USA300 (R)
Procedure, shortened: as §1

[2] = tested on: S. aureus (MSSA) ATCC 9144; type: cell-based, Staphylococcus aureus
Procedure, shortened: as §1

[3] = tested on: S. aureus (MRSA) NCTC 13616; type: cell-based, Staphylococcus aureus; conditions: S. aureus (MRSA) NCTC 13616 (R)
Procedure, shortened: as §1

K. pneumoniae M6 = type: cell-based, Klebsiella pneumoniae
Procedure, shortened: as §1

K. pneumoniae NCTC 13368 = type: cell-based, Klebsiella pneumoniae; conditions: K. pneumoniae NCTC 13368 (R)
Procedure, shortened: as §1

[4] = MHB, 37 °C, 20 h, OD600, min. three biological repeats

CC(C)[C@H](NC(=O)CNC(=O)[C@H](CCCNC(=N)N)NC(=O)[C@H](CCCNC(=N)N)NC(=O)[C@H](CS)NC(=O)[C@@H](NC(=O)[C@H](CS)NC(=O)[C@@H](N)CCCNC(=N)N)C(C)C)C(=O)N[C@@H](CS)C(=O)N[C@@H](CCCNC(=N)N)C(=O)N[C@@H](CS)C(=O)N[C@H](C(=O)N[C@@H](CS)C(=O)N[C@@H](CCCNC(=N)N)C(=O)N[C@@H](CCCNC(=N)N)C(N)=O)C(C)C [BTD15a] (H-RCVCRRGVCRCVCRR-NH2; N-terminus assumed)
Modal MIC (A. baumannii AYE; [4]): 8 µg/mL | Modal MIC (A. baumannii AYE; shown in µM): 4.4 µM | Modal MIC (A. baumannii ATCC 17978; A. baumannii ATCC 17978 (S), MHB, 37 °C, 20 h, OD600, min. three biological repeats): 4 µg/mL | Modal MIC (A. baumannii ATCC 17978; ATCC 17978, 20 h): 2.2 µM | Modal MIC50 (C. auris TDG 1912): > 70.2 µM | Modal MIC90 (C. auris TDG 1912): > 70.2 µM | Modal MIC (E. coli LEC001; E. coli LEC001 (R), MHB, 37 °C, 20 h, OD600, min. three biological repeats): 16 µg/mL | Modal MIC (E. coli LEC001; LEC001, 20 h): 8.8 µM | Modal MIC (E. coli NCTC 12923; E. coli NCTC 12923 (S), MHB, ~5×10^5 CFU/mL, 37 °C, 20 h, OD600, min. three biological repeats): 8 µg/mL | Modal MIC (E. coli NCTC 12923; NCTC 12923, 20 h): 4.4 µM | Modal MIC50 (C. glabrata NCPF 8018; C. glabrata NCPF 8018, 50% growth inhibition, RPMI 1640 + 2% glucose, 37 °C, 20 h): 128 µg/mL | Modal MIC90 (C. glabrata NCPF 8018; C. glabrata NCPF 8018, 90% growth inhibition, RPMI 1640 + 2% glucose, 37 °C, 20 h): 128 µg/mL | Modal MIC50 (C. glabrata NCPF 8018; NCPF 8018, 20 h): 70.2 µM | Modal MIC90 (C. glabrata NCPF 8018; NCPF 8018, 20 h): 70.2 µM | Modal MIC50 ([1]; C. parapsilosis NCPF 3209, 50% growth inhibition, RPMI 1640 + 2% glucose, 37 °C, 20 h): 128 µg/mL | Modal MIC90 ([1]; C. parapsilosis NCPF 3209, 90% growth inhibition, RPMI 1640 + 2% glucose, 37 °C, 20 h): 128 µg/mL | Modal MIC50 ([1]; NCPF 3209, 20 h): 70.2 µM | Modal MIC90 ([1]; NCPF 3209, 20 h): 70.2 µM | Modal MIC50 (C. krusei NCPF 3876; C. krusei NCPF 3876, 50% growth inhibition, RPMI 1640 + 2% glucose, 37 °C, 20 h): 16 µg/mL | Modal MIC90 (C. krusei NCPF 3876; C. krusei NCPF 3876, 90% growth inhibition, RPMI 1640 + 2% glucose, 37 °C, 20 h): 16 µg/mL | Modal MIC50 (C. krusei NCPF 3876; NCPF 3876, 20 h): 8.8 µM | Modal MIC90 (C. krusei NCPF 3876; NCPF 3876, 20 h): 8.8 µM | Modal MIC50 (C. albicans NCPF 3281; C. albicans NCPF 3281, 50% growth inhibition, RPMI 1640 + 2% glucose, 37 °C, 20 h): 32 µg/mL | Modal MIC90 (C. albicans NCPF 3281; C. albicans NCPF 3281, 90% growth inhibition, RPMI 1640 + 2% glucose, 37 °C, 20 h): 64 µg/mL | Modal MIC50 (C. albicans NCPF 3281; NCPF 3281, 20 h): 17.5 µM | Modal MIC90 (C. albicans NCPF 3281; NCPF 3281, 20 h): 35 µM | Modal MIC50 (C. tropicalis NCPF 8760; C. tropicalis NCPF 8760, 50% growth inhibition, RPMI 1640 + 2% glucose, 37 °C, 20 h): 8 µg/mL | Modal MIC90 (C. tropicalis NCPF 8760; C. tropicalis NCPF 8760, 90% growth inhibition, RPMI 1640 + 2% glucose, 37 °C, 20 h): 8 µg/mL | Modal MIC50 (C. tropicalis NCPF 8760; NCPF 8760, 20 h): 4.4 µM | Modal MIC90 (C. tropicalis NCPF 8760; NCPF 8760, 20 h): 4.4 µM | Modal MIC (P. aeruginosa NCTC 13437; [4]): > 128 µg/mL | Modal MIC (P. aeruginosa NCTC 13437; shown in µM): > 70.2 µM | Modal MIC (S. aureus (MRSA) USA300; [4]): 8 µg/mL | Modal MIC (S. aureus (MRSA) USA300; shown in µM): 4.4 µM | Modal MIC ([2]; ATCC 9144, 20 h): 4.4 µM | Modal MIC ([2]; S. aureus (MSSA) ATCC 9144 (S), MHB, 37 °C, 20 h, OD600, min. three biological repeats): 8 µg/mL | Modal MIC [3, 4]: 8 µg/mL | Modal MIC ([3]; shown in µM): 4.4 µM | Modal MIC (K. pneumoniae M6; K. pneumoniae M6 (S), MHB, 37 °C, 20 h, OD600, min. three biological repeats): 32 µg/mL | Modal MIC (K. pneumoniae M6; M6, 20 h): 17.5 µM | Modal MIC (K. pneumoniae NCTC 13368; [4]): 32 µg/mL | Modal MIC (K. pneumoniae NCTC 13368; shown in µM): 17.5 µM
